Reference: US12110295B2, “WD40 repeat domain protein 5 (WDR5) degradation/disruption compounds and methods of use” (Icahn School of Medicine at Mount Sinai, priority 2018, dated 2024)

Biological target: WDR5 (Homo sapiens, UniProt P61964)
Test: Screening of putative WDR5 degraders by Western blot in MV4;11 and/or MIAPACA2 cells
Format: cell-based
Parameters: After WDR5 degrader treatment, cells were collected and lysed; endogenous in cells; host or cells: MV4;11 and/or MIAPACA2
Conditions: summary of screening, FIGS. 6-10
Description: MV4;11 cells were treated with DMSO or indicated compounds at 0.1 μM and 0.5 μM for 18 hours. […]. MIAPACA2 cells were treated with DMSO or indicated compounds at 0.5 μM and 1.0 μM for 18 hours.
MIAPACA2 cells were treated with DMSO or indicated compounds at 0.1 μM and 0.5 μM for 18 hours.
MIAPACA2 cells were treated with DMSO or indicated compounds at 0.5 μM and 1.0 μM or at 1.0 μM and 10 μM for 18 hours.
MV4;11 cells were treated with DMSO or indicated compounds at 0.1 μM and 1.0 μM for 18 hours.
WDR5 degraders were dissolved in DMSO and DMSO with no degraders was used as the control. 1×10^6 MV4;11 cells or 1×10^5 MIAPACA2 or 2×10^5 Hela cells were seeded in 2 mL medium for each well in […].
For prescreening of all the compounds, each test compound was added to the medium at indicated concentrations. After 18 h treatment, cells were collected.
After WDR5 degrader treatment, cells were collected and lysed. Total cell lysates were used for western blot. The following primary antibodies were used: WDR5 (Santa Cruz), vinculin (Cell Signaling Technology), tubulin (Cell Signaling Technology), GAPDH (Santa Cruz). Blots were imaged using fluorescence-labeled secondary antibodies on ChemiDoc™ Imaging Systems.

## Cc1ncsc1-c1ccc(CNC(=O)[C@@H]2C[C@@H](O)CN2C(=O)[C@@H](NC(=O)CCCCCC(=O)NCCN2CCN(Cc3ccc(F)c(-c4ccc(N5C[C@@H](C)N(C)[C@@H](C)C5)c(NC(=O)c5c[nH]c(=O)cc5C(F)(F)F)c4)c3)CC2)C(C)(C)C)cc1 [XF078-13, N^1-(2-(4-((6-fluoro-3′-(6-oxo-4-(trifluoromethyl)-1,6-dihydropyridine-3-carboxamido)-4′-((3S,5R)-3,4,5-trimethylpiperazin-1-yl)-[1,1′-biphenyl]-3-yl)methyl)piperazin-1-yl)ethyl)-N^7-((S)-1-((2S,4R)-4-hydroxy-2-((4-(4-methylthiazol-5-yl)benzyl)carbamoyl)pyrrolidin-1-yl)-3,3-dimethyl-1-oxobutan-2-yl)heptanediamide]
  effective degradation of WDR5 in MV4;11 and/or MIAPACA2 cells: able to effectively degrade WDR5

## Cc1ncsc1-c1ccc(CNC(=O)[C@@H]2C[C@@H](O)CN2C(=O)[C@@H](NC(=O)COCC(=O)N2CCN(c3ncc(-c4cc(NC(=O)c5ccc(F)cc5C(F)(F)F)c(N5C[C@@H](C)N(C)[C@@H](C)C5)cc4F)cn3)CC2)C(C)(C)C)cc1 [XF078-99, (2S,4R)-1-((S)-2-(2-(2-(4-(5-(2-fluoro-5-(4-fluoro-2-(trifluoromethyl)benzamido)-4-((3S,5R)-3,4,5-trimethylpiperazin-1-yl)phenyl)pyrimidin-2-yl)piperazin-1-yl)-2-oxoethoxy)acetamido)-3,3-dimethylbutanoyl)-4-hydroxy-N-(4-(4-methylthiazol-5-yl)benzyl)pyrrolidine-2-carboxamide]
  effective degradation of WDR5 in MV4;11 and/or MIAPACA2 cells: able to effectively degrade WDR5

## Cc1ncsc1-c1ccc(CNC(=O)[C@@H]2C[C@@H](O)CN2C(=O)[C@@H](NC(=O)CCCC(=O)N2CCN(Cc3cnc(N4CC=C(c5cc(NC(=O)c6c[nH]c(=O)cc6C(F)(F)F)c(N6C[C@@H](C)N(C)[C@@H](C)C6)cc5F)CC4)nc3)CC2)C(C)(C)C)cc1 [XF078-142, N-(4-fluoro-5-(1-(5-((4-(5-(((S)-1-((2S,4R)-4-hydroxy-2-((4-(4-methylthiazol-5-yl)benzyl)carbamoyl)pyrrolidin-1-yl)-3,3-dimethyl-1-oxobutan-2-yl)amino)-5-oxopentanoyl)piperazin-1-yl)methyl)pyrimidin-2-yl)-1,2,3,6-tetrahydropyridin-4-yl)-2-((3S,5R)-3,4,5-trimethylpiperazin-1-yl)phenyl)-6-oxo-4-(trifluoromethyl)-1,6-dihydropyridine-3-carboxamide]
  effective degradation of WDR5 in MV4;11 and/or MIAPACA2 cells: able to effectively degrade WDR5

## Cc1ncsc1-c1ccc(CNC(=O)[C@@H]2C[C@@H](O)CN2C(=O)[C@@H](NC(=O)CCCCCCCC(=O)N2CC=C(c3cc(NC(=O)c4c[nH]c(=O)cc4C(F)(F)F)c(N4C[C@@H](C)N(C)[C@@H](C)C4)cc3F)CC2)C(C)(C)C)cc1 [XF078-44, N-(4-fluoro-5-(1-(9-(((S)-1-((2S,4R)-4-hydroxy-2-((4-(4-methylthiazol-5-yl)benzyl)carbamoyl)pyrrolidin-1-yl)-3,3-dimethyl-1-oxobutan-2-yl)amino)-9-oxononanoyl)-1,2,3,6-tetrahydropyridin-4-yl)-2-((3S,5R)-3,4,5-trimethylpiperazin-1-yl)phenyl)-6-oxo-4-(trifluoromethyl)-1,6-dihydropyridine-3-carboxamide]
  effective degradation of WDR5 in MV4;11 and/or MIAPACA2 cells: able to effectively degrade WDR5

## Cc1ncsc1-c1ccc(CNC(=O)[C@@H]2C[C@@H](O)CN2C(=O)[C@@H](NC(=O)COCCOCCOCC(=O)N2CCN(c3ncc(-c4cc(NC(=O)c5ccc(F)cc5C(F)(F)F)c(N5C[C@@H](C)N(C)[C@@H](C)C5)cc4F)cn3)CC2)C(C)(C)C)cc1 [XF078-103, (2S,4R)-1-((S)-2-(tert-butyl)-14-(4-(5-(2-fluoro-5-(4-fluoro-2-(trifluoromethyl)benzamido)-4-((3S,5R)-3,4,5-trimethylpiperazin-1-yl)phenyl)pyrimidin-2-yl)piperazin-1-yl)-4,14-dioxo-6,9,12-trioxa-3-azatetradecanoyl)-4-hydroxy-N-(4-(4-methylthiazol-5-yl)benzyl)pyrrolidine-2-carboxamide]
  effective degradation of WDR5 in MV4;11 and/or MIAPACA2 cells: able to effectively degrade WDR5

## Cc1ncsc1-c1ccc([C@H](C)NC(=O)[C@@H]2C[C@@H](O)CN2C(=O)[C@@H](NC(=O)CCCCCCCCCC(=O)N2CCN(c3ccc(-c4cc(NC(=O)c5c[nH]c(=O)cc5C(F)(F)F)c(N5C[C@@H](C)N(C)[C@@H](C)C5)cc4F)cn3)CC2)C(C)(C)C)cc1 [XF067-134, N-(4-fluoro-5-(6-(4-(11-(((S)-1-((2S,4R)-4-hydroxy-2-(((S)-1-(4-(4-methylthiazol-5-yl)phenyl)ethyl)carbamoyl)pyrrolidin-1-yl)-3,3-dimethyl-1-oxobutan-2-yl)amino)-11-oxoundecanoyl)piperazin-1-yl)pyridin-3-yl)-2-((3S,5R)-3,4,5-trimethylpiperazin-1-yl)phenyl)-6-oxo-4-(trifluoromethyl)-1,6-dihydropyridine-3-carboxamide]
  effective degradation of WDR5 in MV4;11 and/or MIAPACA2 cells: able to effectively degrade WDR5

## C[C@@H]1CN(c2ccc(-c3cc(CN4CCN(CCNC(=O)CCCCCCCNc5cccc6c5C(=O)N(C5CCC(=O)NC5=O)C6=O)CC4)ccc3F)cc2NC(=O)c2c[nH]c(=O)cc2C(F)(F)F)C[C@H](C)N1C (stereo partly drawn) [XF078-24, N-(5′-((4-(2-(8-((2-(2,6-dioxopiperidin-3-yl)-1,3-dioxoisoindolin-4-yl)amino)octanamido)ethyl)piperazin-1-yl)methyl)-2′-fluoro-4-((3S,5R)-3,4,5-trimethylpiperazin-1-yl)-[1,1′-biphenyl]-3-yl)-6-oxo-4-(trifluoromethyl)-1,6-dihydropyridine-3-carboxamide]
  effective degradation of WDR5 in MV4;11 and/or MIAPACA2 cells: able to effectively degrade WDR5

## Cc1ncsc1-c1ccc(CNC(=O)[C@@H]2C[C@@H](O)CN2C(=O)[C@@H](NC(=O)CCCCCCCC(=O)NCCN2CCN(Cc3ccc(F)c(-c4ccc(N5C[C@@H](C)N(C)[C@@H](C)C5)c(NC(=O)c5c[nH]c(=O)cc5C(F)(F)F)c4)c3)CC2)C(C)(C)C)cc1 [XF078-15, N^1-(2-(4-((6-fluoro-3′-(6-oxo-4-(trifluoromethyl)-1,6-dihydropyridine-3-carboxamido)-4′-((3S,5R)-3,4,5-trimethylpiperazin-1-yl)-[1,1′-biphenyl]-3-yl)methyl)piperazin-1-yl)ethyl)-N^9-((S)-1-((2S,4R)-4-hydroxy-2-((4-(4-methylthiazol-5-yl)benzyl)carbamoyl)pyrrolidin-1-yl)-3,3-dimethyl-1-oxobutan-2-yl)nonanediamide]
  effective degradation of WDR5 in MV4;11 and/or MIAPACA2 cells: able to effectively degrade WDR5

## C[C@@H]1CN(c2cc(F)c(C3=CCN(c4ncc(CN5CCN(C(=O)CCOCCOCCOCCOCCNc6cccc7c6C(=O)N(C6CCC(=O)NC6=O)C7=O)CC5)cn4)CC3)cc2NC(=O)c2c[nH]c(=O)cc2C(F)(F)F)C[C@H](C)N1C (stereo partly drawn) [XF078-159, N-(5-(1-(5-((4-(1-((2-(2,6-dioxopiperidin-3-yl)-1,3-dioxoisoindolin-4-yl)amino)-3,6,9,12-tetraoxapentadecan-15-oyl)piperazin-1-yl)methyl)pyrimidin-2-yl)-1,2,3,6-tetrahydropyridin-4-yl)-4-fluoro-2-((3S,5R)-3,4,5-trimethylpiperazin-1-yl)phenyl)-6-oxo-4-(trifluoromethyl)-1,6-dihydropyridine-3-carboxamide]
  effective degradation of WDR5 in MV4;11 and/or MIAPACA2 cells: able to effectively degrade WDR5

## Cc1ncsc1-c1ccc(CNC(=O)[C@@H]2C[C@@H](O)CN2C(=O)[C@@H](NC(=O)COCCOCC(=O)N2CCN(Cc3cnc(N4CC=C(c5cc(NC(=O)c6c[nH]c(=O)cc6C(F)(F)F)c(N6C[C@@H](C)N(C)[C@@H](C)C6)cc5F)CC4)nc3)CC2)C(C)(C)C)cc1 [XF078-134, N-(4-fluoro-5-(1-(5-((4-(2-(2-(2-(((S)-1-((2S,4R)-4-hydroxy-2-((4-(4-methylthiazol-5-yl)benzyl)carbamoyl)pyrrolidin-1-yl)-3,3-dimethyl-1-oxobutan-2-yl)amino)-2-oxoethoxy)ethoxy)acetyl)piperazin-1-yl)methyl)pyrimidin-2-yl)-1,2,3,6-tetrahydropyridin-4-yl)-2-((3S,5R)-3,4,5-trimethylpiperazin-1-yl)phenyl)-6-oxo-4-(trifluoromethyl)-1,6-dihydropyridine-3-carboxamide]
  effective degradation of WDR5 in MV4;11 and/or MIAPACA2 cells: able to effectively degrade WDR5

## C[C@@H]1CN(c2ccc(-c3cc(CN4CCN(CCNC(=O)CCOCCOCCNc5cccc6c5C(=O)N(C5CCC(=O)NC5=O)C6=O)CC4)ccc3F)cc2NC(=O)c2c[nH]c(=O)cc2C(F)(F)F)C[C@H](C)N1C (stereo partly drawn) [XF078-26, N-(5′-((4-(2-(3-(2-(2-((2-(2,6-dioxopiperidin-3-yl)-1,3-dioxoisoindolin-4-yl)amino)ethoxy)ethoxy)propanamido)ethyl)piperazin-1-yl)methyl)-2′-fluoro-4-((3S,5R)-3,4,5-trimethylpiperazin-1-yl)-[1,1′-biphenyl]-3-yl)-6-oxo-4-(trifluoromethyl)-1,6-dihydropyridine-3-carboxamide]
  effective degradation of WDR5 in MV4;11 and/or MIAPACA2 cells: able to effectively degrade WDR5
